# Structures can show the parent of a compound that is named as a salt.
# How the values were obtained:
# [1] = tested on: bronchoconstriction caused by 100 μmol/kg of histamine; experiment: Histamine-induced bronchoconstriction test (Konzett and Rossler), i.v. administration; assay type: in vivo, guinea pigs; details: for ED50: Cavia porcellus, iv
# From the text: (§1) Furthermore, the antihistaminic properties were studied in guinea pigs by the bronchoconstriction test performed according to the method of H. Konzett and R. Rossler (Arch. Exp. Path. Pharmak.--Naunym Schmiedeberg - 195, 71-74, 1940).
# (§2) The products of the invention were studied in this test after administration in solution or in suspension via the intravenous and intraduodenal routes, and also in powder form via the intranasal route.
# (§3) Irrespective of the administration route, the preparation of the animals employed in the test consists in first anesthetizing male guinea pigs weighing 350 to 400 g by intraperitoneal (i.p.) injection of a sterile and isotonic solution containing 25% (w/v.) of ethyl carbamate on the basis of 6.0 ml/kg, and in then fitting the animals with a tracheal cannula to permit measurement of the pulmonary pressure, a cannula in the right jugular vein for the intravenous (i.v.) administration of solution, and also a cannula in the left carotid artery for qualitative observation of the blood pressure.
# (§4) The animals are then connected to a pump (Harvard, ref. 50-1718) in order to maintain an artificial ventilation at a frequency of 60 insufflations per minute; the intratracheal pressure is recorded by an assembly comprising a transducer, an amplifier and a recorder (Gould, respective refs.: PLOEZ, 13-4615-50 and 8188-G4400-06).
# (§5) Fitted in this way, the animals are left undisturbed for 10 minutes before the beginning of the actual experiment, which is carried out in different ways according to the administration route envisaged.
# In base form, the test products are dissolved in an isotonic solution (0.9% NaCl) containing 10% (v/v) of Transcutol (R). Dilutions are performed by adding isotonic solution. In salt, in particular hydrochloride, form, the solutions are prepared in the isotonic solution.
# The treatment of the animals consists of a series of administrations of histamine dihydrochloride solution on the basis of 100 μmol/kg before and after treatment with the solution of test product, which is carried out according to the following time schedule:
# t=-20 minutes - histamine (100 μmol/kg)
# t=-10 minutes - ditto control
# t=0 - injection of the test product
# t=+10 minutes - histamine (100 μmol/kg)
# (§6) - Calculation and expression of the results:
# (§7) For each administration route and for each time of administration of histamine, the activity of the products is expressed as the percentage change in amplitude of bronchoconstriction, calculated relative to that produced by the "control" administration of histamine which precedes the administration of the test product. The % change is calculated according to the formula: [formula] in which: Bc(tx) represents the amplitude of the bronchoconstriction in mm at time x,
# (§8) Bo(tx) the amplitude of the base-line respiration in mm at time x,
# (§9) Bc(to) and Bo(to) the corresponding amplitudes in mm on receipt of the "control" administration of histamine which precedes that of the test product.
# (§10) The inhibitory activity of the test products on histamine-induced bronchoconstriction is expressed at different times of the studies as their ED50, which is the effective dose of product, expressed in μmol/kg, capable of inhibiting 50% of the histamine-induced bronchoconstriction at the time in question.
# (§11) Failing this expression, the results are expressed as a % change at the time in question and for a given concentration of the test product. Under these conditions, a positive percentage corresponds to a potentiating effect on bronchoconstriction and, conversely, a negative percentage to an inhibitory effect.
# (§12) Statistical analyses of the results were carried out by the Student t test. A value of p<0.05 is considered significant.
# (§13) The compounds of the invention described in Examples 1 and 2 were employed in these tests. In addition, as a comparative product for the eutomer of Example 1, the racemic (R,S) compound corresponding to it, and which is described and prepared in Example 7 of U.S. Pat. No. 4,994,617, was employed. […]
# [2] = tested on: bronchoconstriction caused by 100 μmol/kg of histamine; experiment: Histamine-induced bronchoconstriction test (Konzett and Rossler), intraduodenal (i.d.) administration; assay type: in vivo, guinea pigs; details: for ED50: Cavia porcellus; for ED50, inhibition of histamine-induced bronchoconstriction, t = 20': 20 min
# From the text: as §1, §2, §3, §4, §5
# In base form, the test products are suspended in a solution containing 1% w/v of carboxymethylcellulose (CMC), and, in salt form, they are dissolved in an isotonic solution before being administered via a cannula whose end is placed in the animal's duodenum.
# The time schedule for the successive administrations of histamine via the i.v. route and that for the test solution via the i.d. route are identical to that described above in a).
# as §6, §7, §8, §9, §10, §11, §12, §13
# [3] = tested on: bronchoconstriction caused by ovalbumin in the sensitized animal; experiment: Inhibition of ovalbumin-induced anaphylactic bronchoconstriction in sensitized guinea pigs, oral; assay type: in vivo; details: Cavia porcellus, 1 h, intratracheal pressure after 60 minutes, read-out: ED50 inhibiting 50% of ovalbumin-induced bronchoconstriction
# Experimental: The technique performed consists in previously sensitizing guinea pigs weighing 250 to 300 g by two intraperitoneal injections, separated by an interval of 24 hours, of 0.5 ml of a sterile suspension of physiological saline (0.9% NaCl) containing 20 μg of ovalbumin (Grade V; Sigma) and 100 mg of aluminum hydroxide Al(OH)3. At the same time, unsensitized control animals are treated with two injections of suspension not containing ovalbumin. The actual experiment is performed after a period needed for the sensitization of the animals, which is between 14 and 21 days. It is generally arrived at after 18 days, and consists in first administering increasing quantities of the test product in solution in water orally to groups of 5 animals, on the basis of 0.5 to 1.0 ml per animal, corresponding to doses of 1 to 10 μmol/kg of product. The animals are then anesthetized 50 minutes after this administration by an intraperitoneal injection of a solution of urethane. […] After 60 minutes, the intratracheal pressure measured in mm of Hg is determined for each animal of the test groups and those of the control group. These measurements enable the extent of the inhibition of bronchoconstriction produced by the test product to be determined. […]
# [4] = 10 min, t = 10', read-out: ED50, inhibition of histamine-induced bronchoconstriction, t = 10'
# [5] = 0.5 h, t = 30', read-out: ED50, inhibition of histamine-induced bronchoconstriction, t = 30'
# [6] = 40 min, t = 40', read-out: ED50, inhibition of histamine-induced bronchoconstriction, t = 40'
# [7] = 50 min, t = 50', read-out: ED50, inhibition of histamine-induced bronchoconstriction, t = 50'
# [8] = 1 h, t = 60', read-out: ED50, inhibition of histamine-induced bronchoconstriction, t = 60'
compound,measurement,setting,value
"C=CCN(C)[C@](C)(CO)Cc1ccc(Cl)c(Cl)c1 [Example 2, base, (S)-(+)-N-allyl-2-methylamino-2-(3,4-dichlorobenzyl)-1-propanol]",ED50,[1]; [4],1.27 µmol/kg
same,ED50,"[1]; 20 min, t = 20', read-out: ED50, inhibition of histamine-induced bronchoconstriction, t = 20'",0.93 µmol/kg
same,ED50,[1]; [5],0.74 µmol/kg
same,ED50,[1]; [6],0.96 µmol/kg
same,ED50,[1]; [7],1.01 µmol/kg
same,ED50,[1]; [8],0.76 µmol/kg
same,ED50,[2]; [5],0.59 µmol/kg
same,ED50,[2]; [6],0.65 µmol/kg
same,ED50,[2]; [7],0.63 µmol/kg
same,ED50,[2]; [8],0.62 µmol/kg
same,"ED50, inhibition of histamine-induced bronchoconstriction, t = 20'",[2],1.45 µmol/kg
"C=CCN(C)[C@](C)(CO)Cc1ccc(Cl)c(Cl)c1 [Example 2, hydrochloride, (S)-(+)-N-allyl-2-methylamino-2-(3,4-dichlorobenzyl)-1-propanol]",ED50,[3],1.84 µmol/kg
same,"ED50, inhibition of histamine-induced bronchoconstriction, t = 10'","[1]; t = 10', 10 min",1.68 μmol/kg
same,"ED50, inhibition of histamine-induced bronchoconstriction, t = 20'","[1]; t = 20', 20 min",0.70 µmol/kg
same,"ED50, inhibition of histamine-induced bronchoconstriction, t = 30'","[1]; t = 30', 30 min",0.58 µmol/kg
same,"ED50, inhibition of histamine-induced bronchoconstriction, t = 40'","[1]; t = 40', 40 min",0.57 µmol/kg
same,"ED50, inhibition of histamine-induced bronchoconstriction, t = 50'","[1]; t = 50', 50 min",0.51 µmol/kg
same,"ED50, inhibition of histamine-induced bronchoconstriction, t = 60'","[1]; t = 60', 60 min",0.53 µmol/kg
same,ED50,[2]; [4],1.59 µmol/kg
same,"ED50, inhibition of histamine-induced bronchoconstriction, t = 20'",[2],0.42 µmol/kg
same,"ED50, inhibition of histamine-induced bronchoconstriction, t = 30'","[2]; t = 30', 30 min",0.33 µmol/kg
same,"ED50, inhibition of histamine-induced bronchoconstriction, t = 40'","[2]; t = 40', 40 min",0.48 µmol/kg
same,"ED50, inhibition of histamine-induced bronchoconstriction, t = 50'","[2]; t = 50', 50 min",0.51 µmol/kg
same,"ED50, inhibition of histamine-induced bronchoconstriction, t = 60'","[2]; t = 60', 60 min",0.56 µmol/kg

# — patent US5348980A, “Enantiomers derived from (S)-2-amino-2-(3,4-dichlorobenzyl)-1-propanol, their use and method of preparation” (Institute de Recherche Jouveinal, priority 1992, dated 1994)
